Consider 44 compounds from ChEMBL document CHEMBL1134151, “Solution-phase, parallel synthesis and pharmacological evaluation of acylguanidine derivatives as potential sodium channel blockers” (Bioorg Med Chem Lett, 2001).

The target in data set [1] is Sodium channel protein type 2 subunit alpha (Homo sapiens, UniProt Q99250). The data set is described as follows: Inhibition of sodium channel blockade in CHO cells expressing neuronal mammalian type IIA (CNaIIA) sodium channel. In kind it is cell-based.
In data set [2] the target is Sodium channel protein type 5 subunit alpha (Homo sapiens, UniProt Q14524). The data set is described as follows: Inhibition of sodium channel blockade in CHO cells expressing human cardiac (hHI) sodium channel. In kind it is cell-based.
The test system of another data set is Mus musculus. The data set is described as follows: In vivo anticonvulsant activity tested as percent inhibition of audiogenic antiseizure in DBA/2 mice at a dose of 20 mg/kg, ip. In kind it is functional. To be noted: route intraperitoneal.
Data set [3] is described as follows: pKa value determined. In kind it is physicochemical.
Data set [4] is described as follows: Partition coefficient (logD). The format is physicochemical. To be noted: octanol/water.

Sodium channel protein type 5 subunit alpha, sequence (Q14524 whole entry): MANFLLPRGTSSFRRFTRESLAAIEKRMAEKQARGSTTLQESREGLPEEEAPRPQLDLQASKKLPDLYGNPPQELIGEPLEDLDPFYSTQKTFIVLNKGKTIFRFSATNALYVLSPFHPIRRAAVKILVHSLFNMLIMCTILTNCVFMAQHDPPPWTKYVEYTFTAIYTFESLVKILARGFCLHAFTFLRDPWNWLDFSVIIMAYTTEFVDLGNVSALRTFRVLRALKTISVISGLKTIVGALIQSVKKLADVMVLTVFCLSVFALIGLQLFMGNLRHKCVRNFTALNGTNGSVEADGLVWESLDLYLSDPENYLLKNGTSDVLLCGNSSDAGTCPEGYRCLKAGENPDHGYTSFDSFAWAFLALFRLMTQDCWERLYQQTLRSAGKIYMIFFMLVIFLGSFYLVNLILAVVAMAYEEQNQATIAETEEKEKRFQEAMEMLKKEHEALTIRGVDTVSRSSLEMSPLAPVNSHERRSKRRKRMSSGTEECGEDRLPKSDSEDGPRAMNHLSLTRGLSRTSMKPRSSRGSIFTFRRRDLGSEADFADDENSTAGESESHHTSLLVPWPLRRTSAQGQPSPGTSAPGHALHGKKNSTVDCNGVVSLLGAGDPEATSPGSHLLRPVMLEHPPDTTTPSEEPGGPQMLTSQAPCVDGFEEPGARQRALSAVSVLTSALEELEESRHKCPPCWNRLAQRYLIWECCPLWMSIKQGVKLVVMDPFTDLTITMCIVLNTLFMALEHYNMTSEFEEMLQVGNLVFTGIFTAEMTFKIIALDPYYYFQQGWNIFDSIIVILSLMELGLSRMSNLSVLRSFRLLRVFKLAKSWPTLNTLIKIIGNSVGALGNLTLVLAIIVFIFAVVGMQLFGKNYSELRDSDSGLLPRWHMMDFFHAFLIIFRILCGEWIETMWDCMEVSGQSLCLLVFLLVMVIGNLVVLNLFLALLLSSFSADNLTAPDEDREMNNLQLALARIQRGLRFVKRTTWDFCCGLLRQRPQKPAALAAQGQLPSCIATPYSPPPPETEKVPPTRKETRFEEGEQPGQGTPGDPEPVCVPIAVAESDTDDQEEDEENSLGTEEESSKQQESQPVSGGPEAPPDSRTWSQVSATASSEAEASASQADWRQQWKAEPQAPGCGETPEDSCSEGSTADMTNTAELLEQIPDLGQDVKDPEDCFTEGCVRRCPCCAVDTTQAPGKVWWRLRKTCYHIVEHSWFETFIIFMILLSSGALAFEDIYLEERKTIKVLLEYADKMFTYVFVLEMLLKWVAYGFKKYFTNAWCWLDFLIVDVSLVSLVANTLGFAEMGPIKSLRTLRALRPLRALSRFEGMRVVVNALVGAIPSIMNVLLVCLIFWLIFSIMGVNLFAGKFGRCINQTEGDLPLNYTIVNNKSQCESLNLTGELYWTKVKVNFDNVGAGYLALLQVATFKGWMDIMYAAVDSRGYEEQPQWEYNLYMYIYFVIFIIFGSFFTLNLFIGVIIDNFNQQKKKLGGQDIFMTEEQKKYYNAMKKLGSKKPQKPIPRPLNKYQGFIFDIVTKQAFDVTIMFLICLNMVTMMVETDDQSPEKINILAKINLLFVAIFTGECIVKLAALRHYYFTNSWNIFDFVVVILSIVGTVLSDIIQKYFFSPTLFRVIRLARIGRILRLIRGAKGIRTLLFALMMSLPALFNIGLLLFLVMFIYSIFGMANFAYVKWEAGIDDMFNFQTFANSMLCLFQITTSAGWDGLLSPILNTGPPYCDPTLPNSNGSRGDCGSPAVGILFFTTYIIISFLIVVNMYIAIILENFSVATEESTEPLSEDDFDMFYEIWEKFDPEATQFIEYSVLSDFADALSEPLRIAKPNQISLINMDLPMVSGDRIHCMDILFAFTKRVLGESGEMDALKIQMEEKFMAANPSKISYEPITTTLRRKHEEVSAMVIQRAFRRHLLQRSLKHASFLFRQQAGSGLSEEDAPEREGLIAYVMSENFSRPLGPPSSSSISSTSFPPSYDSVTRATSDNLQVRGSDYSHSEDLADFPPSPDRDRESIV
Sodium channel protein type 2 subunit alpha, sequence (Q99250 whole entry): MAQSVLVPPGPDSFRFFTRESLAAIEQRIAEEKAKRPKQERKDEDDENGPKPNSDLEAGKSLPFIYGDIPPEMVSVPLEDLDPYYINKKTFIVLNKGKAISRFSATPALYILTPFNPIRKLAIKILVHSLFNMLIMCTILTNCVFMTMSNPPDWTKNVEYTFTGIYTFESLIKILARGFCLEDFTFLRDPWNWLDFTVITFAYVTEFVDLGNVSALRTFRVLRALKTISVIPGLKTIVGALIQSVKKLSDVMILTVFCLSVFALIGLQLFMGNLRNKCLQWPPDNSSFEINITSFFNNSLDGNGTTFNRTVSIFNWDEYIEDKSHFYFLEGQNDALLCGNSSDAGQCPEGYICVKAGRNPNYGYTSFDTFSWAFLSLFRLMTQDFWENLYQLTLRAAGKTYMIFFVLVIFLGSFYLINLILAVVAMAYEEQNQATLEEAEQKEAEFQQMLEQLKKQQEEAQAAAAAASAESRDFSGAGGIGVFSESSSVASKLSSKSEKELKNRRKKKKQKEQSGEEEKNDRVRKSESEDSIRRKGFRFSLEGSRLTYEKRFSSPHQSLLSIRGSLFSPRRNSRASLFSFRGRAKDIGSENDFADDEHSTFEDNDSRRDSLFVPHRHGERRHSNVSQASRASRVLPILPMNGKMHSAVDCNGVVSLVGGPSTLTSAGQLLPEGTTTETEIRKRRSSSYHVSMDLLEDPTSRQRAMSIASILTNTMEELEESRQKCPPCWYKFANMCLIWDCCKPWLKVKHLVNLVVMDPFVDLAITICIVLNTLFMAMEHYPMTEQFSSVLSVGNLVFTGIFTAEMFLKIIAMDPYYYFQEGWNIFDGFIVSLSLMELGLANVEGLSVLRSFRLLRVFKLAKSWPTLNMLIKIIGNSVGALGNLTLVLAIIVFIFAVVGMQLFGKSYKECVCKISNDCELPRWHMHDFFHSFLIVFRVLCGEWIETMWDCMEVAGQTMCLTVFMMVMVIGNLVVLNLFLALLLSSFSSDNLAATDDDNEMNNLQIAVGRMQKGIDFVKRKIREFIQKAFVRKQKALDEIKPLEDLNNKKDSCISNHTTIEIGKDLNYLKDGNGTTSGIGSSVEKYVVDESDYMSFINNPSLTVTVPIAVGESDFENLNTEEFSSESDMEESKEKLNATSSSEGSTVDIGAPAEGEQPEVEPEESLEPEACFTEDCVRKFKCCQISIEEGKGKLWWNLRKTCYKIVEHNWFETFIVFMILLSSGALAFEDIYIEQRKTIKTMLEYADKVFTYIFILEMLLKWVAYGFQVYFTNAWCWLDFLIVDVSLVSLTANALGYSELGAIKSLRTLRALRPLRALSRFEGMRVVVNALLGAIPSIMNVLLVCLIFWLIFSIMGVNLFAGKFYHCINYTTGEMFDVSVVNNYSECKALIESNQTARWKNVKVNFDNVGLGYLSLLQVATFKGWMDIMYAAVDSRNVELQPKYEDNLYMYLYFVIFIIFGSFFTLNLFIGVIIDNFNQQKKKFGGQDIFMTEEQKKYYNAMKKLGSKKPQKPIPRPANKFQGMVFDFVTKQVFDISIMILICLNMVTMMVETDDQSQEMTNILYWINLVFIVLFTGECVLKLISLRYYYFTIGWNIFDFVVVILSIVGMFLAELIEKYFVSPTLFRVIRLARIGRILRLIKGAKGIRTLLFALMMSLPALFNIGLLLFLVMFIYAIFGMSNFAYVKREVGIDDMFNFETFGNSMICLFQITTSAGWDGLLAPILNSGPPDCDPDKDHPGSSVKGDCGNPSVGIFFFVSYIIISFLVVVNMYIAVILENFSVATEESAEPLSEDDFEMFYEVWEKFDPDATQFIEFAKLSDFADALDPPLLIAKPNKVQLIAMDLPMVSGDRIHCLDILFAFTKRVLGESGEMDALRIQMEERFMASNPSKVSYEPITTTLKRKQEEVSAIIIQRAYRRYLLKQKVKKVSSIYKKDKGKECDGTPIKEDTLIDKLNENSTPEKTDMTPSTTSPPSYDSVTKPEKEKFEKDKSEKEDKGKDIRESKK

The IC50 is the point on the concentration scale where inhibition reaches its midpoint. Lower therefore signals higher potency. Take `Cc1ccc(C(=O)NC(N)=Nc2cc(Br)ccc2Br)cc1`: the IC50 in data set [1] is above 25 µM.

In data set [1], `Cc1ccc(C(=O)NC(=N)N(C)c2cccc(I)c2)cc1` yielded an IC50 of 9.45 µM.

As for `NC(=NCCCCc1ccccc1)NC(=O)c1ccc(Cl)c(Cl)c1`, the IC50 in data set [2] came out at 15.5 µM; in data set [1], 7.11 µM.

For `Cc1ccc(C(=O)NC(N)=NCc2cccc3ccccc23)cc1`, the results for the IC50 in data set [2] and in data set [1] were 8.85 µM and 2.38 µM, respectively.

Consider `Cc1ccc(C(=O)NC(=N)Nc2ccc(OCc3ccccc3)cc2)cc1`, for which inhibition in data set [1] was half-maximal at 10.1 µM (IC50).

Consider `Cc1ccc(C(=O)N/C(N)=N\c2ccccc2C(C)C)cc1`, for which the values for the IC50 in data set [2] and in data set [1] were 4.5 µM and 4.36 µM, respectively.

`Cc1ccc(C(=O)NC(=N)N(C)Sc2cccc(C)c2)cc1` gave an IC50 in data set [1] of 5.44 µM.

Regarding `Cc1ccc(C(=O)NC(N)=NCCc2ccc(Cl)cc2)cc1`, the IC50 was determined as 8.5 µM in data set [2] and 1.97 µM in data set [1].

The inhibition in vivo is the share of the control response that was lost under treatment. Lower therefore signals a weak effect. For the compound `CCOc1ccc(C(=O)NC(N)=NCCCCc2ccccc2)cc1`, the IC50 in data set [2] turned out to be 1.1 µM; in data set [1], 0.76 µM. In the data set on Mus musculus, this compound yielded an inhibition in vivo at 20 mg/kg of 60%.

With `NC(=NCCCCc1ccccc1)NC(=O)c1ccco1`, the figures for the IC50 in data set [2] and in data set [1] were 7.9 µM and 13.8 µM, respectively. In addition, in the data set on Mus musculus, the inhibition in vivo at 20 mg/kg turned out to be 5%.

As for `NC(=NCCCCc1ccccc1)NC(=O)c1ccc(Cl)cc1`, the figures for the IC50 in data set [2] and in data set [1] were 3.6 µM and 4.3 µM, respectively.

For the compound `CCCC/N=C(/N)NC(=O)c1ccc(C)cc1`, the results for the IC50 in data set [2] and in data set [1] were 9 µM and 17.4 µM, respectively.

With `COc1ccc(C(=O)NC(=N)NCCCCc2ccccc2)cc1`, the IC50 was determined as 2.1 µM in data set [2] and 0.82 µM in data set [1]. In the data set with Mus musculus, this compound gave an inhibition in vivo at 20 mg/kg of 42%.

For `Cc1ccc(C(=O)NC(N)=NCCSCc2ccccc2)cc1`, the IC50 is 10.8 µM in data set [2] and 3.9 µM in data set [1].

Regarding `Cc1ccc(C(=O)NC(N)=NCc2ccccc2)cc1`, the IC50 in data set [1] turned out to be 3.87 µM.

For `Cc1ccc(C(=O)NC(N)=NCCc2ccccc2)cc1`, the IC50 amounted to 5.65 µM in data set [2] and 2.66 µM in data set [1].

`Cc1ccc(C(=O)NC(N)=NCCCN(C)C)cc1` came in with an IC50 in data set [1] above 25 µM.

`CCCCOc1ccc(C(=O)NC(N)=NCCCCc2ccccc2)cc1`: the IC50 in data set [2] came to 0.56 µM; in data set [1], 0.63 µM. For the same compound, the inhibition in vivo at 20 mg/kg in the data set with Mus musculus is 97%.

Take `Cc1ccc(C(=O)NC(=N)N2CCc3ccccc32)cc1`: the IC50 was above 100 µM in data set [2] and 8.81 µM in data set [1]. For the same compound, in the data set on Mus musculus, the inhibition in vivo at 20 mg/kg worked out at 16%.

For orientation: pKa means the negative logarithm of the acid dissociation constant. Low values mean a stronger acid or weaker base, high ones a weaker acid or stronger base. By logD is commonly meant lipophilicity at a set pH, counting ionised and neutral species. The low end stands for lower lipophilicity, the high end for higher lipophilicity. `Cc1ccc(C(=O)NC(=N)Nc2ccc(C(C)C)cc2)cc1` displayed a pKa in data set [3] of 6.35. The compound further showed a logD in data set [4] of 4.4. In addition, the IC50 is 19.7 µM in data set [2] and 1.95 µM in data set [1]. The same compound displayed an inhibition in vivo at 20 mg/kg in the data set with Mus musculus of 30%.

`Cc1ccc(C(=O)NC(=N)Nc2cccc3ccccc23)cc1`: in data set [1], the IC50 turned out to be 3.29 µM.

`N=C(N)NC(=O)c1ccccc1` gave a pKa in data set [3] of 6.98.

Consider `COc1ccc2[nH]cc(CCN=C(N)NC(=O)c3ccc(C)cc3)c2c1`, for which the IC50 in data set [2] and in data set [1] was 1.76 µM in each case.

In the case of `Cc1ccc(C(=O)NC(=N)NCCc2cccs2)cc1`, the IC50 in data set [2] turned out to be 10.5 µM; in data set [1], 4.95 µM.

On to `Cc1ccccc1C(=O)NC(N)=NCCCCc1ccccc1`, for which the IC50 in data set [2] came to 1.75 µM; in data set [1], 1.2 µM. In the data set with Mus musculus, the inhibition in vivo at 20 mg/kg was determined as 53%.

For the compound `Cc1ccc(C(=O)NC(N)=NCCOc2ccccc2)cc1`, the figures for the IC50 in data set [2] and in data set [1] were 14.2 µM and 3.23 µM, respectively.

Turning to `NC(=NCCCCc1ccccc1)NC(=O)c1c(Cl)cccc1Cl`, the IC50 in data set [2] was 5.4 µM; in data set [1], 5.03 µM.

`Cc1ccc(C(=O)NC(=N)NCCCCc2ccccc2)cc1` returned a pKa in data set [3] of 7.09. In addition, the values for the IC50 in data set [2] and in data set [1] were 2.85 µM and 1.14 µM, respectively. For the same compound, the inhibition in vivo at 20 mg/kg in the data set with Mus musculus came out at 75%.

On to `Cc1ccc(C(=O)NC(=N)N2CCCc3ccc(C(F)(F)F)cc32)cc1`, for which the IC50 in data set [1] is above 25 µM.

Take `COc1cc(C(=O)NC(N)=NCCCCc2ccccc2)cc(OC)c1OC`: the IC50 in data set [2] amounted to 1.51 µM; in data set [1] it was 1.39 µM.

As to `NC(=NCCCCc1ccccc1)NC(=O)c1cccc(Cl)c1Cl`, the IC50 in data set [2] worked out at 2.71 µM; in data set [1], 1.48 µM.

Regarding `COc1cc(NC(=N)NC(=O)c2ccc(C)cc2)cc(OC)c1OC`, the IC50 in data set [2] stood at 24.4 µM; in data set [1] it was 1.92 µM.

For `Cc1ccc(C(=O)NC(N)=NCCCOc2ccccc2)cc1`, the IC50 amounted to 5.6 µM in data set [2] and 2.67 µM in data set [1]. The compound further returned an inhibition in vivo at 20 mg/kg in the data set with Mus musculus of 54%.

In the case of `Cc1ccc(C(=O)NC(=N)NCCCCCc2ccccc2)cc1`, the half-maximal inhibitory concentration (IC50) is 3.6 µM in data set [2] and 2.11 µM in data set [1]. Further, the inhibition in vivo at 20 mg/kg in the data set with Mus musculus was determined as 7%.

For the compound `Cc1ccc(C(=O)NC(=N)Nc2ccc(C(C)(C)C)cc2)cc1`, in data set [1], the IC50 is above 24 µM.

`NC(=NCCCCc1ccccc1)NC(=O)c1cccc2ccccc12`: the IC50 in data set [2] was 4.1 µM; in data set [1] it was 0.86 µM. The compound also returned an inhibition in vivo at 20 mg/kg in the data set with Mus musculus of 9%.

As for `N=C(NCCCCc1ccccc1)NC(=O)c1cccs1`, the IC50 in data set [2] came to 2.35 µM; in data set [1] it was 4.31 µM.

For the compound `NC(=NCCCCc1ccccc1)NC(=O)c1cc(Cl)ccc1Cl`, the IC50 in data set [2] was 7.89 µM; in data set [1], 3.25 µM.

Regarding `COc1cccc2[nH]cc(CCN=C(N)NC(=O)c3ccc(C)cc3)c12`, the IC50 in data set [2] was determined as 3.92 µM; in data set [1], 3.35 µM.

`Cc1ccc(C(=O)NC(=N)Nc2ccc(OC(C)C)cc2)cc1`: the IC50 in data set [2] was 5.75 µM; in data set [1] it was 2.02 µM.

In the case of `N=C(N)N` [GUANIDINE], the pKa in data set [3] was 12.6.

With `Cc1ccc(C(=O)NC(=N)NCCCc2ccccc2)cc1`, the IC50 was determined as 5.25 µM in data set [2] and 6.03 µM in data set [1].

For the compound `CN=C(NCCCCc1ccccc1)NC(=O)c1ccc(C)cc1`, the IC50 in data set [2] came out at 9 µM; in data set [1] it was 4.16 µM.

As for `N=C(N)Nc1ccccc1` [PHENYLGUANIDINE], the pKa in data set [3] was 10.8.
